Test results taken from the NIST ThermoML archive (doi:10.1016/j.jct.2019.03.040).

Test: molar heat capacity at constant pressure
Details: 101.33 kPa, Liquid, Small sample (50 mg) DSC

COC(=O)CCC(C)=O [methyl levulinate]
Details	molar heat capacity at constant pressure [J/K/mol]
335.68 K	264.19
336.18 K	264.19
336.68 K	264.58
337.18 K	264.45
337.68 K	264.32
338.18 K	264.45
338.68 K	264.45
339.18 K	265.1
339.68 K	265.36
340.18 K	264.97
340.68 K	264.84
341.18 K	264.97
341.68 K	265.49
342.18 K	265.49
342.68 K	265.62
343.18 K	265.75
343.68 K	266.01
344.18 K	266.4
344.68 K	266.27
345.18 K	266.27
345.68 K	266.4
346.18 K	266.79
346.68 K	266.4
347.18 K	266.79
347.68 K	266.66
348.18 K	266.92
348.68 K	267.31
349.18 K	266.92
349.68 K	267.18
350.18 K	267.7
350.68 K	267.7
351.18 K	268.09
351.68 K	268.09
352.18 K	267.96
352.68 K	268.48
353.18 K	268.61
353.68 K	268.61
354.18 K	268.48
354.68 K	268.48
355.18 K	268.87
355.68 K	268.87
356.18 K	268.87
356.68 K	269.13
357.18 K	269.39
357.68 K	269.78
358.18 K	269.91
358.68 K	269.65
359.18 K	270.17
359.68 K	270.3
360.18 K	270.56
360.68 K	270.83
361.18 K	270.96
361.68 K	270.56
362.18 K	270.56
362.68 K	270.56
363.18 K	271.09
363.68 K	270.96
364.18 K	271.22
364.68 K	271.48
365.18 K	271.74
365.68 K	271.74
366.18 K	271.87
366.68 K	271.87
367.18 K	271.87
367.68 K	272.39
368.18 K	272.52
368.68 K	272.65
369.18 K	273.04
369.68 K	273.04
370.18 K	272.78
370.68 K	272.91
371.18 K	273.3
371.68 K	273.56
372.18 K	273.56
372.68 K	273.56
373.18 K	273.82
373.68 K	273.69
